{
  "source": "paper PMC7041945",
  "about": "“Misfolded proteins bind and activate death receptor 5 to trigger apoptosis during unresolved endoplasmic reticulum stress” (eLife, 2020)",
  "key": {"[1]": {"system": "CHOP, BiP, and DR5 mRNA in HCT116 cells", "assay": "qPCR of UPR target transcripts (CHOP, BiP, DR5)", "assay_type": "cell-based, Homo sapiens", "settings": "for fold induction DR5 total / fold induction CHOP: 24 hr, Rep 2, vs 24 hr cytoGFP (empty traffo)", "experimental": "Cells were grown in 6-well plates and harvested with 0.5 ml of TRIzol reagent (Life Technologies) per manufacturer’s protocol to extract RNA. For cDNA synthesis, 500 ng of total RNA was reverse transcribed with 2 μl of the SuperScript VILO master mix (Life Technologies # 11755050) in a total reaction volume of 10 μl following the manufacturer’s protocol for reaction temperature and duration. The reverse transcription product was diluted to 200 μl with 10 mM Tris-HCl pH 8.2 and used at 1:100 dilution for subsequent RT-PCR reactions.\nPCR samples were prepared as described by manufacturer’s protocols from iQ SYBR Green Supermix (BioRad #17088800).\nFor each experiment, qRT-PCR reactions were set up in triplicate and run using a CFX96 Real Time System (Bio-Rad). Quantitation cycles were determined with CFX Manager 3.0 software (Bio-Rad) and then normalized to GAPDH as an internal control."}, "GFP (340+341)": {"system": "GFP (340+341)", "assay": "qPCR of GFP transcript (expression of GFP-tagged construct)", "assay_type": "cell-based", "settings": "Rep 2; for avg. fold induction GFP (340+341) / fold induction GFP (340+341): vs 24 hr cytoGFP (empty traffo)"}, "[2]": {"settings": "Compiled Reps INS RHO, average of 6 reps"}},
  "data": [
    {"substance": "RHO-GFP: GFP-tagged rhodopsin expressed from plasmid", "values": [
      {"measurement": "fold induction DR5 total", "setting": "[1]; replicate 1", "result": 1.485},
      {"measurement": "fold induction CHOP", "setting": "[1]; replicate 2", "result": 1.831},
      {"measurement": "fold induction DR5 total", "setting": "[1]; replicate 2", "result": 1.441},
      {"measurement": "fold induction CHOP", "setting": "[1]; replicate 3", "result": 1.789},
      {"measurement": "fold induction DR5 total", "setting": "[1]; replicate 3", "result": 1.277},
      {"measurement": "BiP avg fold change relative to empty", "setting": "[1]; Compiled Reps INS RHO, average of 3 reps", "result": 1.525},
      {"measurement": "CHOP avg fold change relative to empty", "setting": "[1]; [2]", "result": 1.961},
      {"measurement": "DR5 avg fold change relative to empty", "setting": "[1]; [2]", "result": 1.368},
      {"measurement": "GAPDH avg fold change relative to empty", "setting": "[1]; [2]", "result": 1.006},
      {"measurement": "GFP construct avg fold change relative to empty", "setting": "[1]; [2]", "result": 63.7569},
      {"measurement": "BiP fold change relative to empty", "setting": "[1]; Compiled Reps INS RHO, rep 1", "result": 1.759},
      {"measurement": "CHOP fold change relative to empty", "setting": "[1]; Compiled Reps INS RHO, rep 1", "result": 2.318},
      {"measurement": "DR5 fold change relative to empty", "setting": "[1]; Compiled Reps INS RHO, rep 1", "result": 1.2854},
      {"measurement": "GAPDH fold change relative to empty", "setting": "[1]; Compiled Reps INS RHO, rep 1", "result": 0.9696},
      {"measurement": "GFP construct fold change relative to empty", "setting": "[1]; Compiled Reps INS RHO, rep 1", "result": 45.8961},
      {"measurement": "BiP fold change relative to empty", "setting": "[1]; Compiled Reps INS RHO, rep 2", "result": 1.438},
      {"measurement": "CHOP fold change relative to empty", "setting": "[1]; Compiled Reps INS RHO, rep 2", "result": 1.9687},
      {"measurement": "DR5 fold change relative to empty", "setting": "[1]; Compiled Reps INS RHO, rep 2", "result": 1.492},
      {"measurement": "GAPDH fold change relative to empty", "setting": "[1]; Compiled Reps INS RHO, rep 2", "result": 1.117},
      {"measurement": "GFP construct fold change relative to empty", "setting": "[1]; Compiled Reps INS RHO, rep 2", "result": 55.1085},
      {"measurement": "BiP fold change relative to empty", "setting": "[1]; Compiled Reps INS RHO, rep 3", "result": 1.377},
      {"measurement": "CHOP fold change relative to empty", "setting": "[1]; Compiled Reps INS RHO, rep 3", "result": 1.972},
      {"measurement": "DR5 fold change relative to empty", "setting": "[1]; Compiled Reps INS RHO, rep 3", "result": 1.23},
      {"measurement": "GAPDH fold change relative to empty", "setting": "[1]; Compiled Reps INS RHO, rep 3", "result": 0.9232},
      {"measurement": "GFP construct fold change relative to empty", "setting": "[1]; Compiled Reps INS RHO, rep 3", "result": 65.8656},
      {"measurement": "CHOP fold change relative to empty", "setting": "[1]; Compiled Reps INS RHO, rep 4", "result": 1.892},
      {"measurement": "DR5 fold change relative to empty", "setting": "[1]; Compiled Reps INS RHO, rep 4", "result": 1.485},
      {"measurement": "GAPDH fold change relative to empty", "setting": "[1]; Compiled Reps INS RHO, rep 4", "result": 0.8039},
      {"measurement": "GFP construct fold change relative to empty", "setting": "[1]; Compiled Reps INS RHO, rep 4", "result": 62.5314},
      {"measurement": "CHOP fold change relative to empty", "setting": "[1]; Compiled Reps INS RHO, rep 5", "result": 1.831},
      {"measurement": "DR5 fold change relative to empty", "setting": "[1]; Compiled Reps INS RHO, rep 5", "result": 1.441},
      {"measurement": "GAPDH fold change relative to empty", "setting": "[1]; Compiled Reps INS RHO, rep 5", "result": 1.063},
      {"measurement": "GFP construct fold change relative to empty", "setting": "[1]; Compiled Reps INS RHO, rep 5", "result": 61.8163},
      {"measurement": "CHOP fold change relative to empty", "setting": "[1]; Compiled Reps INS RHO, rep 6", "result": 1.789},
      {"measurement": "DR5 fold change relative to empty", "setting": "[1]; Compiled Reps INS RHO, rep 6", "result": 1.277},
      {"measurement": "GAPDH fold change relative to empty", "setting": "[1]; Compiled Reps INS RHO, rep 6", "result": 1.16},
      {"measurement": "GFP construct fold change relative to empty", "setting": "[1]; Compiled Reps INS RHO, rep 6", "result": 91.3236},
      {"measurement": "UPR target gene transcription", "setting": "[1]; HCT116, transfected 24 hr", "result": "upregulated BiP and CHOP mRNAs"},
      {"measurement": "2^-(deltaCq) GFP (340+341)", "setting": "GFP (340+341); 3 hr, replicate 1", "result": 0.5385},
      {"measurement": "Cq GFP (340+341)", "setting": "GFP (340+341); 3 hr, replicate 1", "result": 20.6309},
      {"measurement": "Cq(sample) - avg Cq(GAPDH), GFP (340+341)", "setting": "GFP (340+341); 3 hr, replicate 1", "result": 0.893},
      {"measurement": "2^-(deltaCq) GFP (340+341)", "setting": "GFP (340+341); 3 hr, replicate 2", "result": 0.6201},
      {"measurement": "Cq GFP (340+341)", "setting": "GFP (340+341); 3 hr, replicate 2", "result": 20.4274},
      {"measurement": "Cq(sample) - avg Cq(GAPDH), GFP (340+341)", "setting": "GFP (340+341); 3 hr, replicate 2", "result": 0.6895},
      {"measurement": "2^-(deltaCq) GFP (340+341)", "setting": "GFP (340+341); 3 hr, replicate 3", "result": 0.5059},
      {"measurement": "Cq GFP (340+341)", "setting": "GFP (340+341); 3 hr, replicate 3", "result": 20.721},
      {"measurement": "Cq(sample) - avg Cq(GAPDH), GFP (340+341)", "setting": "GFP (340+341); 3 hr, replicate 3", "result": 0.9831},
      {"measurement": "avg. fold induction GFP (340+341)", "setting": "GFP (340+341); 3 hr, mean of 3 replicates", "result": 0.02018},
      {"measurement": "fold induction GFP (340+341)", "setting": "GFP (340+341); 3 hr, replicate 1", "result": 0.01959},
      {"measurement": "fold induction GFP (340+341)", "setting": "GFP (340+341); 3 hr, replicate 2", "result": 0.02256},
      {"measurement": "fold induction GFP (340+341)", "setting": "GFP (340+341); 3 hr, replicate 3", "result": 0.0184},
      {"measurement": "2^-(deltaCq) GFP (340+341)", "setting": "GFP (340+341); 7 hr, replicate 1", "result": 2.306},
      {"measurement": "Cq GFP (340+341)", "setting": "GFP (340+341); 7 hr, replicate 1", "result": 18.4525},
      {"measurement": "Cq(sample) - avg Cq(GAPDH), GFP (340+341)", "setting": "GFP (340+341); 7 hr, replicate 1", "result": -1.205},
      {"measurement": "2^-(deltaCq) GFP (340+341)", "setting": "GFP (340+341); 7 hr, replicate 2", "result": 2.483},
      {"measurement": "Cq GFP (340+341)", "setting": "GFP (340+341); 7 hr, replicate 2", "result": 18.3457},
      {"measurement": "Cq(sample) - avg Cq(GAPDH), GFP (340+341)", "setting": "GFP (340+341); 7 hr, replicate 2", "result": -1.312},
      {"measurement": "2^-(deltaCq) GFP (340+341)", "setting": "GFP (340+341); 7 hr, replicate 3", "result": 2.811},
      {"measurement": "Cq GFP (340+341)", "setting": "GFP (340+341); 7 hr, replicate 3", "result": 18.1671},
      {"measurement": "Cq(sample) - avg Cq(GAPDH), GFP (340+341)", "setting": "GFP (340+341); 7 hr, replicate 3", "result": -1.4909},
      {"measurement": "avg. fold induction GFP (340+341)", "setting": "GFP (340+341); 7 hr, mean of 3 replicates", "result": 0.09215},
      {"measurement": "fold induction GFP (340+341)", "setting": "GFP (340+341); 7 hr, replicate 1", "result": 0.08389},
      {"measurement": "fold induction GFP (340+341)", "setting": "GFP (340+341); 7 hr, replicate 2", "result": 0.09033},
      {"measurement": "fold induction GFP (340+341)", "setting": "GFP (340+341); 7 hr, replicate 3", "result": 0.1022},
      {"measurement": "avg. 2^-(deltaCq) GFP (340+341)", "setting": "GFP (340+341); 24 hr, mean of 3 replicates", "result": 71.8905},
      {"measurement": "2^-(deltaCq) GFP (340+341)", "setting": "GFP (340+341); 24 hr, replicate 1", "result": 62.5314},
      {"measurement": "Cq GFP (340+341)", "setting": "GFP (340+341); 24 hr, replicate 1", "result": 13.0515},
      {"measurement": "Cq(sample) - avg Cq(GAPDH), GFP (340+341)", "setting": "GFP (340+341); 24 hr, replicate 1", "result": -5.967},
      {"measurement": "2^-(deltaCq) GFP (340+341)", "setting": "GFP (340+341); 24 hr, replicate 2", "result": 61.8163},
      {"measurement": "Cq GFP (340+341)", "setting": "GFP (340+341); 24 hr, replicate 2", "result": 13.0681},
      {"measurement": "Cq(sample) - avg Cq(GAPDH), GFP (340+341)", "setting": "GFP (340+341); 24 hr, replicate 2", "result": -5.95},
      {"measurement": "2^-(deltaCq) GFP (340+341)", "setting": "GFP (340+341); 24 hr, replicate 3", "result": 91.3236},
      {"measurement": "Cq GFP (340+341)", "setting": "GFP (340+341); 24 hr, replicate 3", "result": 12.5051},
      {"measurement": "Cq(sample) - avg Cq(GAPDH), GFP (340+341)", "setting": "GFP (340+341); 24 hr, replicate 3", "result": -6.513},
      {"measurement": "avg. fold induction GFP (340+341)", "setting": "GFP (340+341); 24 hr, mean of 3 replicates", "result": 2.615},
      {"measurement": "fold induction GFP (340+341)", "setting": "GFP (340+341); 24 hr, replicate 1", "result": 2.275},
      {"measurement": "fold induction GFP (340+341)", "setting": "GFP (340+341); 24 hr, replicate 2", "result": 2.2486},
      {"measurement": "fold induction GFP (340+341)", "setting": "GFP (340+341); 24 hr, replicate 3", "result": 3.322}
    ]}
  ]
}
